The molecules below were run against SUV420H1 enzyme (Homo sapiens, UniProt Q4FZB7) (assay: TR-FRET SAH SUV420H1 enzyme inhibition assay). Details: Histone Peptide H4(8-30)me1 and SAM, overnight at room temp, TR-FRET detection of SAH, read-out: TR-FRET SAH_SUV420H1 IC50.
Chain of SUV420H1 enzyme (Q4FZB7 whole entry): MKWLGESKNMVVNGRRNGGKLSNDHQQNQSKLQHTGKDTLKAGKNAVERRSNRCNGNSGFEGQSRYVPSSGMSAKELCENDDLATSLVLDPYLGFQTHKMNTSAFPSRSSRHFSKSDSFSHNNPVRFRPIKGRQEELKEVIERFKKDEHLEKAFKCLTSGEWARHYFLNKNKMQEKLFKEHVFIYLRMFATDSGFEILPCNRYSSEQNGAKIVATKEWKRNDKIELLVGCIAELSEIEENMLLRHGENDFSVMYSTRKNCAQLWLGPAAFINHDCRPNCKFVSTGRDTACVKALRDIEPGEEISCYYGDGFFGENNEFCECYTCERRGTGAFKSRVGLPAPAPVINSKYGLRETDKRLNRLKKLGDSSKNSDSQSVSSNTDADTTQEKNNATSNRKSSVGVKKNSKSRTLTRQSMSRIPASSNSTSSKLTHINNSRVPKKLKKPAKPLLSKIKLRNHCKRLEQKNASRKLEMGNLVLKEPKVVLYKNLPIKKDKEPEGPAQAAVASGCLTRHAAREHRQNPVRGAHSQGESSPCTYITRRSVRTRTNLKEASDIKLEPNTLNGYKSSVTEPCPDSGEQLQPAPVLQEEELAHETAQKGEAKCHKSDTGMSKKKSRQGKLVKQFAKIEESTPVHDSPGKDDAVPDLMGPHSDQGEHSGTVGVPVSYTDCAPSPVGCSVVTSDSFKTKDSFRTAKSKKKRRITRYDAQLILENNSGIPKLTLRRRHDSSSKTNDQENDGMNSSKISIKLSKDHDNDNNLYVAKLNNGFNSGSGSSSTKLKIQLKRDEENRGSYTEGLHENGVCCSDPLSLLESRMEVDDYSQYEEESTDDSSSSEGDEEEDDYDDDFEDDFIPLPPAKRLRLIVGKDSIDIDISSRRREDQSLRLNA
Type: biochemical
Summary of the method: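 SUV420H1 (90 nM) preincubated 30 min with compound (3-fold dilutions, 50 to 0.00075 μM), then H4(8-30)me1 peptide 5 nM and SAM 4 nM added, overnight at room temp. SAH product detected by TR-FRET with Tb anti-SAH antibody and Oregon Green-SAH in RIPA buffer, 4 h; IC50 from Hill fit, asymptotes fixed 0-100%.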
Molecule `N#Cc1ccc(C(=O)NCc2cc3cc(C4=CCNCC4)cc(Cn4cnc5c(N)ncnc54)c3[nH]2)c(F)c1` [Example 286, N-({7-[(6-amino-9H-purin-9-yl)methyl]-5-(1,2,3,6-tetrahydropyridin-4-yl)-1H-indol-2-yl}methyl)-4-cyano-2-fluorobenzamide] has an IC50 of 41.1 nM.
Work on `N#Cc1ccc(C(=O)NCc2cc3cc(C4=CCC(F)(F)CC4)cc(Cn4cnc5c(N)ncnc54)c3[nH]2)c(F)c1` [Example 287, N-({7-[(6-amino-9H-purin-9-yl)methyl]-5-(4,4-difluorocyclohex-1-en-1-yl)-1H-indol-2-yl}methyl)-4-cyano-2-fluorobenzamide] yielded an IC50 of 87.8 nM.
Work on `CC(=O)N1CC=C(c2cc(Cn3cnc4c(N)ncnc43)c3[nH]c(CNC(=O)c4ccc(C#N)cc4F)cc3c2)CC1` [Example 288, N-({5-(1-acetyl-1,2,3,6-tetrahydropyridin-4-yl)-7-[(6-amino-9H-purin-9-yl)methyl]-1H-indol-2-yl}methyl)-4-cyano-2-fluorobenzamide] yielded an IC50 of 43.1 nM.
`CC(C)(C)OC(=O)N1CC=C(c2cc(Cn3cnc4c(N)ncnc43)c3[nH]c(CNC(=O)c4ccc(C#N)cc4F)cc3c2)CC1` [Example 289, tert-butyl 4-(7-[(6-amino-9H-purin-9-yl)methyl]-2-{[(4-cyano-2-fluorobenzoyl)amino]methyl}-1H-indol-5-yl)-3,6-dihydropyridine-1(2H)-carboxylate] showed an IC50 of 61.3 nM.
For `Cc1cccc(C)c1CNCc1cc2cc(Cl)cc(Cn3cnc4c(N)ncnc43)c2[nH]1` [Example 290, 9-[(5-chloro-2-{[(2,6-dimethylbenzyl)amino]methyl}-1H-indol-7-yl)methyl]-9H-purin-6-amine], the IC50 was 2800 nM.
Work on `Nc1ncnc2c1ncn2Cc1cc(Cl)cc2cc(CNC(=O)CCc3ccccc3)[nH]c12` [Example 291, N-({7-[(6-amino-9H-purin-9-yl)methyl]-5-chloro-1H-indol-2-yl}methyl)-3-phenylpropanamide] yielded an IC50 of 12900 nM.
Molecule `Cc1ccc(CC(=O)NCc2cc3cc(Cl)cc(Cn4cnc5c(N)ncnc54)c3[nH]2)cc1` [Example 292, N-({7-[(6-amino-9H-purin-9-yl)methyl]-5-chloro-1H-indol-2-yl}methyl)-2-(4-methylphenyl)acetamide] has an IC50 of 32200 nM.
Molecule `Cc1cccc(CC(=O)NCc2cc3cc(Cl)cc(Cn4cnc5c(N)ncnc54)c3[nH]2)c1` [Example 293, N-({7-[(6-amino-9H-purin-9-yl)methyl]-5-chloro-1H-indol-2-yl}methyl)-2-(3-methylphenyl)acetamide] has an IC50 of 20500 nM.
Molecule `Cc1ccccc1CC(=O)NCc1cc2cc(Cl)cc(Cn3cnc4c(N)ncnc43)c2[nH]1` [Example 294, N-({7-[(6-amino-9H-purin-9-yl)methyl]-5-chloro-1H-indol-2-yl}methyl)-2-(2-methylphenyl)acetamide] has an IC50 of over 50000 nM.
In the case of `Cc1cccc(C)c1C(=O)NCc1cc2cc(Cl)cc(Cn3cnc4c(N)ncnc43)c2[nH]1` [Example 295, N-({7-[(6-amino-9H-purin-9-yl)methyl]-5-chloro-1H-indol-2-yl}methyl)-2,6-dimethylbenzamide], the IC50 is reported as 607 nM.
With `CCc1ccccc1C(=O)NCc1cc2cc(Cl)cc(Cn3cnc4c(N)ncnc43)c2[nH]1` [Example 296, N-({7-[(6-amino-9H-purin-9-yl)methyl]-5-chloro-1H-indol-2-yl}methyl)-2-ethylbenzamide] the IC50 was 623 nM.
For `COc1ccc(CC(=O)NCc2cc3cc(Cl)cc(Cn4cnc5c(N)ncnc54)c3[nH]2)cc1` [Example 297, N-({7-[(6-amino-9H-purin-9-yl)methyl]-5-chloro-1H-indol-2-yl}methyl)-2-(4-methoxyphenyl)acetamide], the IC50 was 6040 nM.
`COc1ccccc1CC(=O)NCc1cc2cc(Cl)cc(Cn3cnc4c(N)ncnc43)c2[nH]1` [Example 298, N-({7-[(6-amino-9H-purin-9-yl)methyl]-5-chloro-1H-indol-2-yl}methyl)-2-(2-methoxyphenyl)acetamide] gave an IC50 of 5980 nM.
With `COc1cccc(C)c1C(=O)NCc1cc2cc(Cl)cc(Cn3cnc4c(N)ncnc43)c2[nH]1` [Example 299, N-({7-[(6-amino-9H-purin-9-yl)methyl]-5-chloro-1H-indol-2-yl}methyl)-2-methoxy-6-methylbenzamide] the IC50 was 1840 nM.
`COc1cc(C(=O)NCc2cc3cc(Cl)cc(Cn4cnc5c(N)ncnc54)c3[nH]2)ccc1C` [Example 300, N-({7-[(6-amino-9H-purin-9-yl)methyl]-5-chloro-1H-indol-2-yl}methyl)-3-methoxy-4-methylbenzamide] showed an IC50 of 4150 nM.
`CN(C)c1ccc(C(=O)NCc2cc3cc(Cl)cc(Cn4cnc5c(N)ncnc54)c3[nH]2)cc1` [Example 302, N-({7-[(6-amino-9H-purin-9-yl)methyl]-5-chloro-1H-indol-2-yl}methyl)-4-(dimethylamino)benzamide] showed an IC50 of over 50000 nM.
For `Cc1cc(C#N)ccc1C(=O)NCc1cc2cc(Cl)cc(Cn3cnc4c(N)ncnc43)c2[nH]1` [Example 303, N-({7-[(6-amino-9H-purin-9-yl)methyl]-5-chloro-1H-indol-2-yl}methyl)-4-cyano-2-methylbenzamide], the IC50 was 72.3 nM.
With `Cc1cc(C#N)ccc1C(=O)NCc1cc2cc(C3=CCOCC3)cc(Cn3cnc4c(N)ncnc43)c2[nH]1` [Example 304, N-({7-[(6-amino-9H-purin-9-yl)methyl]-5-(3,6-dihydro-2H-pyran-4-yl)-1H-indol-2-yl}methyl)-4-cyano-2-methylbenzamide] the IC50 was 49.1 nM.
`Cc1cc(C#N)ccc1C(=O)NCc1cc2cc(C3=CCNCC3)cc(Cn3cnc4c(N)ncnc43)c2[nH]1` [Example 305, N-({7-[(6-amino-9H-purin-9-yl)methyl]-5-(1,2,3,6-tetrahydropyridin-4-yl)-1H-indol-2-yl}methyl)-4-cyano-2-methylbenzamide] showed an IC50 of 36.7 nM.
`Cc1cc(C#N)ccc1C(=O)NCc1cc2cc(C3=CCC(F)(F)CC3)cc(Cn3cnc4c(N)ncnc43)c2[nH]1` [Example 306, N-({7-[(6-amino-9H-purin-9-yl)methyl]-5-(4,4-difluorocyclohex-1-en-1-yl)-1H-indol-2-yl}methyl)-4-cyano-2-methylbenzamide] was tested, and the IC50 was 56.4 nM.
For `CC(=O)N1CC=C(c2cc(Cn3cnc4c(N)ncnc43)c3[nH]c(CNC(=O)c4ccc(C#N)cc4C)cc3c2)CC1` [Example 307, N-({5-(1-acetyl-1,2,3,6-tetrahydropyridin-4-yl)-7-[(6-amino-9H-purin-9-yl)methyl]-1H-indol-2-yl}methyl)-4-cyano-2-methylbenzamide], the IC50 was 29.7 nM.
For `Cc1cc(C#N)ccc1C(=O)NCc1cc2cc(C3=CCN(C(=O)OC(C)(C)C)CC3)cc(Cn3cnc4c(N)ncnc43)c2[nH]1` [Example 308], the IC50 was 50 nM.
Molecule `CN(C)c1cccc(C(=O)NCc2cc3cc(Cl)cc(Cn4cnc5c(N)ncnc54)c3[nH]2)c1` [Example 309, N-({7-[(6-amino-9H-purin-9-yl)methyl]-5-chloro-1H-indol-2-yl}methyl)-3-(dimethylamino)benzamide] has an IC50 of 7310 nM.
With `CCNc1ccccc1C(=O)NCc1cc2cc(Cl)cc(Cn3cnc4c(N)ncnc43)c2[nH]1` [Example 310, N-({7-[(6-amino-9H-purin-9-yl)methyl]-5-chloro-1H-indol-2-yl}methyl)-2-(ethylamino)benzamide] the IC50 was 13200 nM.
With `COc1cc(C#N)ccc1CNCc1cc2cc(Cl)cc(Cn3cnc4c(N)ncnc43)c2[nH]1` [Example 311, 4-{[({7-[(6-amino-9H-purin-9-yl)methyl]-5-chloro-1H-indol-2-yl}methyl)amino]methyl}-3-methoxybenzonitrile] the IC50 was 3240 nM.
